Measurements: PubChem BioAssay AID1918994 (Molecular Pharmacology Branch, DTP, NCI, 2023)

System: 292921-168-R-J2-PDC complex spheroid growth
Assay: Anticancer human tumor 292921-168-R-J2-PDC patient-derived pancreatic carcinoma cell line growth inhibition [AhR]
Details: for IC50: curve of first compound; for viability, T/C: stronger effect = lower value
How it was run: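 Spheroids combined tumor cells with HUVEC endothelial cells and human MSCs as stroma. AhR antagonists were paired with standard or investigational drugs, each dosed in half-log steps down from near clinical Cmax, or from 10 microM where Cmax was unknown.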

[1] = second compound 0.1 µM, first compound 0.0316 µM
[2] = second compound 0.1 µM, first compound 0.1 µM
[3] = second compound 0.1 µM, first compound 0.316 µM
[4] = second compound 0.1 µM, first compound 1 µM
[5] = second compound 0.1 µM, first compound 3.16 µM
[6] = second compound 0.1 µM, first compound 10 µM
[7] = second compound 0.316 µM, first compound 0.0316 µM
[8] = second compound 0.316 µM, first compound 0.1 µM
[9] = second compound 0.316 µM, first compound 0.316 µM
[10] = second compound 0.316 µM, first compound 1 µM
[11] = second compound 0.316 µM, first compound 3.16 µM
[12] = second compound 0.316 µM, first compound 10 µM
[13] = second compound 1 µM, first compound 0.0316 µM
[14] = second compound 1 µM, first compound 0.1 µM
[15] = second compound 1 µM, first compound 0.316 µM
[16] = second compound 1 µM, first compound 1 µM
[17] = second compound 1 µM, first compound 3.16 µM
[18] = second compound 1 µM, first compound 10 µM
[19] = second compound 3.16 µM, first compound 0.0316 µM
[20] = second compound 3.16 µM, first compound 0.1 µM
[21] = second compound 3.16 µM, first compound 0.316 µM
[22] = second compound 3.16 µM, first compound 1 µM
[23] = second compound 3.16 µM, first compound 3.16 µM
[24] = second compound 3.16 µM, first compound 10 µM
[25] = second compound 10 µM, first compound 0.0316 µM
[26] = second compound 10 µM, first compound 0.1 µM
[27] = second compound 10 µM, first compound 0.316 µM
[28] = second compound 10 µM, first compound 1 µM
[29] = second compound 10 µM, first compound 3.16 µM
[30] = second compound 10 µM, first compound 10 µM
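Also: spheroids exposed to compounds for seven days after three days of growth.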

CC(C)CC(NC(=O)C(Cc1ccccc1)NC(=O)c1cnccn1)B(O)O (stereo not given) + Cc1ccccc1N=Nc1ccc(NC(=O)c2ccnn2C)c(C)c1
IC50 (second compound 0.1 µM): 6.4 nM
IC50 (second compound 0.316 µM): 6.09 nM
IC50 (second compound 1 µM): 5.95 nM
IC50 (second compound 3.16 µM): 5.13 nM
IC50 (second compound 10 µM): 3.97 nM
viability, T/C (second compound 0.1 µM, first compound 0.000949 µM): 91.6%
viability, T/C (second compound 0.1 µM, first compound 0.003 µM): 110%
viability, T/C (second compound 0.1 µM, first compound 0.00949 µM): 23.4%
viability, T/C (second compound 0.1 µM, first compound 0.03 µM): 1.67%
viability, T/C (second compound 0.1 µM, first compound 0.0949 µM): 0.43%
viability, T/C (second compound 0.1 µM, first compound 0.3 µM): 0.32%
viability, T/C (second compound 0.316 µM, first compound 0.000949 µM): 82%
viability, T/C (second compound 0.316 µM, first compound 0.003 µM): 102%
viability, T/C (second compound 0.316 µM, first compound 0.00949 µM): 23.9%
viability, T/C (second compound 0.316 µM, first compound 0.03 µM): 1.24%
viability, T/C (second compound 0.316 µM, first compound 0.0949 µM): 3.16%
viability, T/C (second compound 0.316 µM, first compound 0.3 µM): 0.68%
viability, T/C (second compound 1 µM, first compound 0.000949 µM): 82.3%
viability, T/C (second compound 1 µM, first compound 0.003 µM): 94.3%
viability, T/C (second compound 1 µM, first compound 0.00949 µM): 23.8%
viability, T/C (second compound 1 µM, first compound 0.03 µM): 1.24%
viability, T/C (second compound 1 µM, first compound 0.0949 µM): 0.41%
viability, T/C (second compound 1 µM, first compound 0.3 µM): 0.93%
viability, T/C (second compound 3.16 µM, first compound 0.000949 µM): 77.5%
viability, T/C (second compound 3.16 µM, first compound 0.003 µM): 82.8%
viability, T/C (second compound 3.16 µM, first compound 0.00949 µM): 15.3%
viability, T/C (second compound 3.16 µM, first compound 0.03 µM): 1.68%
viability, T/C (second compound 3.16 µM, first compound 0.0949 µM): 2.65%
viability, T/C (second compound 3.16 µM, first compound 0.3 µM): 0.81%
viability, T/C (second compound 10 µM, first compound 0.000949 µM): 59.9%
viability, T/C (second compound 10 µM, first compound 0.003 µM): 62%
viability, T/C (second compound 10 µM, first compound 0.00949 µM): 15.7%
viability, T/C (second compound 10 µM, first compound 0.03 µM): 1.7%
viability, T/C (second compound 10 µM, first compound 0.0949 µM): 1.05%
viability, T/C (second compound 10 µM, first compound 0.3 µM): 0.32%

COc1cc(Nc2ncc3c(n2)-c2ccc(Cl)cc2C(c2c(F)cccc2OC)=NC3)ccc1C(=O)O + Cc1ccccc1N=Nc1ccc(NC(=O)c2ccnn2C)c(C)c1
IC50 (second compound 0.1 µM): < 31.6 nM
IC50 (second compound 0.316 µM): < 31.6 nM
IC50 (second compound 1 µM): < 31.6 nM
IC50 (second compound 3.16 µM): < 31.6 nM
IC50 (second compound 10 µM): < 31.6 nM
viability, T/C [1]: 45.7%
viability, T/C [2]: 37.9%
viability, T/C [3]: 53.5%
viability, T/C [4]: 45.1%
viability, T/C [5]: 39.8%
viability, T/C [6]: 29.1%
viability, T/C [7]: 42.2%
viability, T/C [8]: 42.6%
viability, T/C [9]: 43%
viability, T/C [10]: 41%
viability, T/C [11]: 36.8%
viability, T/C [12]: 30.3%
viability, T/C [13]: 46.2%
viability, T/C [14]: 34.2%
viability, T/C [15]: 45.8%
viability, T/C [16]: 42.7%
viability, T/C [17]: 40.9%
viability, T/C [18]: 24%
viability, T/C [19]: 32.8%
viability, T/C [20]: 35%
viability, T/C [21]: 40.6%
viability, T/C [22]: 36.5%
viability, T/C [23]: 34.8%
viability, T/C [24]: 23.1%
viability, T/C [25]: 34%
viability, T/C [26]: 35.5%
viability, T/C [27]: 33.4%
viability, T/C [28]: 33.8%
viability, T/C [29]: 30%
viability, T/C [30]: 20.5%

NS(=O)(=O)OCC1CC(n2ccc3c(NC4CCc5ccccc54)ncnc32)CC1O (stereo not given) + Cc1ccccc1N=Nc1ccc(NC(=O)c2ccnn2C)c(C)c1
IC50 (second compound 0.1 µM): 189 nM
IC50 (second compound 0.316 µM): 168 nM
IC50 (second compound 1 µM): 161 nM
IC50 (second compound 3.16 µM): 138 nM
IC50 (second compound 10 µM): 115 nM
viability, T/C [1]: 122%
viability, T/C [2]: 88.3%
viability, T/C [3]: 19.3%
viability, T/C [4]: 4.4%
viability, T/C [5]: 3.09%
viability, T/C [6]: 2.81%
viability, T/C [7]: 128%
viability, T/C [8]: 77.9%
viability, T/C [9]: 15.7%
viability, T/C [10]: 4.5%
viability, T/C [11]: 4.78%
viability, T/C [12]: 3.59%
viability, T/C [13]: 111%
viability, T/C [14]: 73.6%
viability, T/C [15]: 16.2%
viability, T/C [16]: 6.04%
viability, T/C [17]: 3.96%
viability, T/C [18]: 5.05%
viability, T/C [19]: 100%
viability, T/C [20]: 64%
viability, T/C [21]: 13.8%
viability, T/C [22]: 4.58%
viability, T/C [23]: 8.31%
viability, T/C [24]: 2.91%
viability, T/C [25]: 88.9%
viability, T/C [26]: 55.2%
viability, T/C [27]: 13.7%
viability, T/C [28]: 5.55%
viability, T/C [29]: 3.67%
viability, T/C [30]: 2.58%

O=C(C=Cc1cccc(S(=O)(=O)Nc2ccccc2)c1)NO + Cc1ccccc1N=Nc1ccc(NC(=O)c2ccnn2C)c(C)c1
IC50 (second compound 0.1 µM): 579 nM
IC50 (second compound 0.316 µM): 697 nM
IC50 (second compound 1 µM): 520 nM
IC50 (second compound 3.16 µM): 285 nM
IC50 (second compound 10 µM): < 31.6 nM
viability, T/C [1]: 69%
viability, T/C [2]: 64%
viability, T/C [3]: 52%
viability, T/C [4]: 39.7%
viability, T/C [5]: 38.2%
viability, T/C [6]: 3.35%
viability, T/C [7]: 74.9%
viability, T/C [8]: 68.2%
viability, T/C [9]: 55.4%
viability, T/C [10]: 43.2%
viability, T/C [11]: 36.9%
viability, T/C [12]: 6.05%
viability, T/C [13]: 68.8%
viability, T/C [14]: 59.1%
viability, T/C [15]: 54.8%
viability, T/C [16]: 38.8%
viability, T/C [17]: 36.1%
viability, T/C [18]: 3.74%
viability, T/C [19]: 65.8%
viability, T/C [20]: 49%
viability, T/C [21]: 49.1%
viability, T/C [22]: 34.9%
viability, T/C [23]: 35.2%
viability, T/C [24]: 2.03%
viability, T/C [25]: 44.2%
viability, T/C [26]: 41.6%
viability, T/C [27]: 36.9%
viability, T/C [28]: 33.8%
viability, T/C [29]: 29.1%
viability, T/C [30]: 4.17%
